Source: the supplement of paper PMC9402605

What was measured:
Test in all cases: number of L4/adult animals relative to DMSO control (development) (fraction of control); higher = more growth (less toxic); extreme values may be limits of the assay
Details in all cases: concentration unit: uM
CB3474 ben-1(e1880) = tested on: CB3474 ben-1(e1880)
Procedure: (§1)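 About 20 L1 larvae of wild-type or anthelmintic-resistant C. elegans strains were grown in 96-well plates with HB101 E. coli and a compound dilution series (0.6% DMSO). The number of L4/adult animals was counted after 72 h (day 7 for the slow-growing PR1152) and normalised to DMSO wells. Values are the mean of 3 biological replicates, each done in technical triplicate.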

RP2674 mev-1(tr393) = tested on: RP2674 mev-1(tr393)
Procedure: as §1

NM1968 slo-1(js379) = tested on: NM1968 slo-1(js379)
Procedure: as §1

[1] = tested on: DA1316 avr-14;avr-15;glc-1
Procedure: as §1

VC731 unc-63(ok1075) = tested on: VC731 unc-63(ok1075)
Procedure: as §1

CF1038 daf-16(mu86) = tested on: CF1038 daf-16(mu86)
Procedure: as §1

N2 = tested on: N2
Procedure: as §1

CB1072 unc-29(e1072) = tested on: CB1072 unc-29(e1072)
Procedure: as §1

RB2119 acr-23(ok2804) = tested on: RB2119 acr-23(ok2804)
Procedure: as §1

PR1152 cha-1(p1152) = tested on: PR1152 cha-1(p1152)
Procedure: as §1

c1ccc([C@H]2CN3CCSC3=N2)cc1 [levamisole]
number of L4/adult animals
Details	CB1072 unc-29(e1072)	CB3474 ben-1(e1880)	CF1038 daf-16(mu86)	N2	NM1968 slo-1(js379)	PR1152 cha-1(p1152)	RB2119 acr-23(ok2804)	RP2674 mev-1(tr393)	VC731 unc-63(ok1075)	[1]
concentration: 9.375	1.09	0.906	0.606	0.964	0.888	0.329	0.95	0.783	1	0.774
concentration: 18.75	1.07	0.964	0.91	0.973	0.984	0.207	0.812	0.942	1.03	1.01
concentration: 37.5	1.1	1.06	1.01	1.05	0.95	0.0255	0.632	1.04	0.996	0.984
concentration: 75	1.01	0.914	0.827	1.08	0.856	0.00498	0.47	0.914	1.09	0.871
concentration: 150	1.08	0.627	0.678	0.535	0.595	0	0.13	0.352	1.07	0.487
concentration: 300	0.988	0.403	0.335	0.218	0.0768	0	0.0225	0.0923	1.02	0.106
concentration: 600	1.04	0.0551	0.0591	0.0242	0	0	0	0.029	1.04	0.00556

O=C(NCCc1ncc(C(F)(F)F)cc1Cl)c1ccccc1C(F)(F)F [fluopyram]
number of L4/adult animals
Details	CB1072 unc-29(e1072)	CB3474 ben-1(e1880)	CF1038 daf-16(mu86)	N2	NM1968 slo-1(js379)	PR1152 cha-1(p1152)	RB2119 acr-23(ok2804)	RP2674 mev-1(tr393)	VC731 unc-63(ok1075)	[1]
concentration: 0.09375	0.915	1.01	1.02	1.06	0.984	0.97	1.01	1.1	0.961	0.958
concentration: 0.1875	0.705	0.812	0.957	0.953	0.617	0.284	0.981	1.14	0.651	0.854
concentration: 0.375	0.689	0.674	0.451	0.712	0.0215	0	0.372	1.01	0.305	0.176
concentration: 0.75	0	0	0	0	0	0	0	0.999	0	0
concentration: 1.5	0	0	0	0	0	0	0	1.06	0	0
concentration: 3	0	0	0	0	0	0	0	1.03	0	0
concentration: 6	0	0	0	0	0	0	0	0.91	0	0
